From patent US8343925B2, “Composition for improving brain function and method for improving brain function” (Calpis Co., Ltd., priority 2009, dated 2013)

Legend:
[1] = test system: scopolamine-induced amnesia; experiment: Y-shaped maze test of spontaneous alternation behavior, scopolamine-induced amnesia; assay type: in vivo; conditions: male ddY mice, scopolamine 1 mg/kg s.c. 30 min before test
Method: Male mice (n=15) of the ddY strain (approximately 7-week old) were used, and they took food and water ad lib. Test substances used were 9.0 mg/kg weight of Ile-Pro-Pro. The test substances were administered to the mice once orally 60 minutes before the execution of a Y-shaped maze test for evaluation of spontaneous alternation behavior. Further, 30 minutes before the execution of the Y-shaped maze test, 1 mg/kg weight of scopolamine was subcutaneously administered on the backs of the mice in order to induce brain dysfunction (dysmnesia and/or cognitive impairment) in the mice. In the Y-shaped maze test, a Y-shaped maze was used as an experimental device, in which the length of each arm was 40 cm, the height of the wall was 12 cm, the width of the floor was 3 cm, and the width of the upper part was 10 cm, and three arms were connected to each other at an angle of 120 degrees. Each of the mice was placed at the tip of any one of the arms of the Y-shaped maze, and then let go to freely explore in the maze for 8 minutes. The sequence of the arms each of the mice entered was recorded. The number of entries by each of the mice for each of the arms during the measurement time was counted to be the total number of entries. […] The percentage of spontaneous alternation behavior was calculated by dividing the number of spontaneous alternation behavior by a number obtained by subtracting 2 from the total number of entries, and multiplying a resultant number by 100. […] The measured values were expressed in the form of mean±standard error for each group. A significant difference between the control group and the scopolamine control group was calculated using Student's t-test.
Male mice (n=15) of the ddY strain (approximately 7-week old) were used, and they took food and water ad lib. […] The arms each of the mice entered were sequentially recorded. The number of entries by each of the mice for each of the arms during the measurement time was counted to be the total number of entries. […]

[2] = target: angiotensin-converting enzyme (ACE) (Homo sapiens, UniProt P12821); conditions: cited from earlier work
angiotensin-converting enzyme (ACE), sequence (P12821 30-1306, species assumed): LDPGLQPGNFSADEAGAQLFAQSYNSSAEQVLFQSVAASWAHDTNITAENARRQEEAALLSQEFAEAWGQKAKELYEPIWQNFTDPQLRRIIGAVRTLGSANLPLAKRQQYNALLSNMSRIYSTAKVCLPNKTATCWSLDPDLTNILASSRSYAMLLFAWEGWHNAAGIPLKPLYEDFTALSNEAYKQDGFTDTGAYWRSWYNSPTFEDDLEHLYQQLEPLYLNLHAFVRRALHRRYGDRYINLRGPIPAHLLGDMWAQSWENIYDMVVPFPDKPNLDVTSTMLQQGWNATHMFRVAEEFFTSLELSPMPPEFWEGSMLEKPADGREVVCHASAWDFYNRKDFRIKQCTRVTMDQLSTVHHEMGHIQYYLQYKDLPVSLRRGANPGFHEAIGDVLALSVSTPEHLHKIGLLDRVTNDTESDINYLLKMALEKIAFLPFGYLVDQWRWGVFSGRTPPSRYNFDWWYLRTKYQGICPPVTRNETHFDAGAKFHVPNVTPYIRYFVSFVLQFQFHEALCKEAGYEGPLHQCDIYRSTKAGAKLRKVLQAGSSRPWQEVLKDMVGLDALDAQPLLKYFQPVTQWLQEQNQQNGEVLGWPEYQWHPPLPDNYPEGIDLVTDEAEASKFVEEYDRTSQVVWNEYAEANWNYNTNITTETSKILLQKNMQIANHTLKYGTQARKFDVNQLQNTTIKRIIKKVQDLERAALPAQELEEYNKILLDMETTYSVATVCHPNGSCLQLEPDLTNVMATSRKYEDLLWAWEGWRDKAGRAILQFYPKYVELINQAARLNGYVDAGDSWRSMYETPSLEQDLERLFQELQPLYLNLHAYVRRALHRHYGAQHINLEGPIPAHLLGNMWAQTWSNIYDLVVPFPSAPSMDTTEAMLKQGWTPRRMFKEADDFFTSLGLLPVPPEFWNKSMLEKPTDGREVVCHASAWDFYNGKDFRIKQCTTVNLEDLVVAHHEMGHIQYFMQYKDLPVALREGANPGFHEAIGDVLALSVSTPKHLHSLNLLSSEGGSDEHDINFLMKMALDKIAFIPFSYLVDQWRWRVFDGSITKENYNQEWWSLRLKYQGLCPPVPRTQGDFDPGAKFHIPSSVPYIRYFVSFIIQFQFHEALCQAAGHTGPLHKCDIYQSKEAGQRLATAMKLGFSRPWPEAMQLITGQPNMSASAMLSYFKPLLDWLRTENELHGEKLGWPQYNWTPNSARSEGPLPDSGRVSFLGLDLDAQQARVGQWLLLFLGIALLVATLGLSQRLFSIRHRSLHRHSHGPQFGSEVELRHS

blood pressure = conditions: oral administration; cited from earlier work
[3] = test system: increase in blood pressure due to cold stress; conditions: oral administration; cited from earlier work
[4] = 10 mg/kg weight once orally 60 min before test

| Substance | prophylactic activity against amnesia (percentage of spontaneous alternation behavior) ([1]; 9.0 mg/kg weight once orally 60 min before test) | ACE inhibitory activity [2] | hypotensive activity (blood pressure) | inhibitory activities on increase in blood pressure due to cold stress or on decrease in markers of immune function [3] | prophylactic activity against amnesia (percentage of spontaneous alternation behavior) [1, 4] |
| --- | --- | --- | --- | --- | --- |
| Ile-Pro-Pro | had a prophylactic activity against amnesia | has an ACE inhibitory activity | hypotensive lowering activity | exhibit inhibitory activities on increase in blood pressure due to cold stress | – |
| Leu-Pro-Pro | – | – | – | – | had a prophylactic activity against amnesia |
| Val-Pro-Pro [Val-Pro-Pro (VPP), reference compound] | – | – | – | exhibit inhibitory activities on increase in blood pressure due to cold stress | – |
| Ser-Pro-Pro | – | – | – | – | had a prophylactic activity against amnesia |
